Biological target: Serine/threonine-protein kinase Chk1 (Homo sapiens, UniProt O14757)
Assay: Inhibition of human CHK1 using KKKVSRSGLYRSPSMPENLNRPR as substrate preincubated for 20 mins followed by [gamma-33P]-ATP addition and measured after 120 mins by Hotspot assay

Sequence of Serine/threonine-protein kinase Chk1 (O14757 whole entry): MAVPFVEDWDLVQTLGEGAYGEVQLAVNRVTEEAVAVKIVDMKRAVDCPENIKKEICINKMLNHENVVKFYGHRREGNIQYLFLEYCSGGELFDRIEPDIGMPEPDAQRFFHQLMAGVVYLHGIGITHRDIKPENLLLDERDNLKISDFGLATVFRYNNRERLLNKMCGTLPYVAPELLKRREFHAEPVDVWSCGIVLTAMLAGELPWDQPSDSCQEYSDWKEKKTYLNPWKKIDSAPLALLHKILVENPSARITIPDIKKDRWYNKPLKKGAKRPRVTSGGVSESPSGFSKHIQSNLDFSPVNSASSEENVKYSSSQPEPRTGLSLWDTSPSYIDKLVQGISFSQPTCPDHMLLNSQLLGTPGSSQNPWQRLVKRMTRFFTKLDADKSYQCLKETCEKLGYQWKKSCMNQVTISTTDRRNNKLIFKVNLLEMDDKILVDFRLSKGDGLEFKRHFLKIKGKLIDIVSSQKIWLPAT

CN1CCC(Nc2ccc(C(=O)Nc3cc(-c4cc(C#N)cs4)n[nH]3)cc2)CC1
IC50 (read-out: IC50): 1530 nM | IC50 (read-out: pIC50 (converted)): 1580 nM

Source: ChEMBL document CHEMBL4330071 (Eur J Med Chem, 2019)
